The values that follow come from patent US6699850B2, “Compositions and methods for inhibiting bone resorption” (Merck & Co., Inc., priority 1998, dated 2004).

One experiment deals with osteoclast function. In words: Osteoclast cell cultures and bone resorption assays. Type of experiment: cell-based. The note with it: with a bisphosphonate such as alendronate monosodium trihydrate; no concentration stated. The procedure:
The compounds are dosed both 5 and 6 days after establishing the culture, and the formation of 250 μm cells are counted using an inverted microscope with a 10×objective and quantitated versus a no treatment control.
Murine co-cultures of osteoblasts and marrow cells are prepared using the methods of Wesolowski, et al., Exp Cell Res, (1995), 219, pp. 679-686, which is incorporated by reference herein in its entirety. Bone marrow cells are harvested from 6-week-old male Balb/C mice by flushing marrow spaces of freshly isolated long bones (tibiae and femora) with α-MEM (minimal essential media) containing penicillin/streptomycin (100 I.U./ml of each and 20 mM Hepes buffer). The bone marrow cells are suspended in α-MEM and the cells are filtered through an approximately 70 μm cell strainer. The filtrate is centrifuged at about 300×g for about 7 minutes. The resulting pellet is resuspended in α-MEM supplemented with fetal calf serum (10% v/v) and 10 nM 1, 25-(OH)2 vitamin D3. These bone marrow isolates are added to sub-confluent monolayers of osteoblastic MB 1.8 cells in cell culture plates and cultured for 7 days at 37 °C. in the presence of 5% CO2. Culture media is replenished ever other day. Fusion of the osteoclast precursor cells from bone marrow (with each other) to form multinucleated osteoclast-like cells typically occurs after about 7 days. […]

The subject of experiment [1] is 34 kDa Mst Kinase fragment. The experiment can be described thus: In-gel kinase assay of Mst kinase activities in cultured osteoclast-like cells. Type of experiment: cell-based, Murine. The note with it: for blocking of activation of Mst1 cleavage by alendronate monosodium trihydrate: FIG. 5 lanes 3 and 4, 10 μM isoprenoid with 30 μM alendronate monosodium trihydrate; for activation of the 34 kDa Mst Kinase fragment: osteoclast like cells. Here is the method:
Murine co-cultures of osteoblasts and marrow cells are prepared using the methods of Wesolowski, et al., Exp Cell Res, (1995), 219, pp. 679-686, which is incorporated by reference herein in its entirety. Bone marrow cells are harvested from 6-week-old male Balb/C mice by flushing marrow spaces of freshly isolated long bones (tibiae and femora) with α-MEM (minimal essential media) containing penicillin/streptomycin (100 I.U./ml of each and 20 mM Hepes buffer). The bone marrow cells are suspended in α-MEM and the cells are filtered through an approximately 70 μm cell strainer. The filtrate is centrifuged at about 300×g for about 7 minutes. The resulting pellet is resuspended in α-MEM supplemented with fetal calf serum (10% v/v) and 10 nM 1, 25-(OH)2 vitamin D3. These bone marrow isolates are added to sub-confluent monolayers of osteoblastic MB 1.8 cells in cell culture plates and cultured for 7 days at 37 °C. in the presence of 5% CO2. Culture media is replenished ever other day. Fusion of the osteoclast precursor cells from bone marrow (with each other) to form multinucleated osteoclast-like cells typically occurs after about 7 days. Osteoclast-like cells are enriched by sequential treatment with collagenase (1 mg/mL in phosphate buffered saline) for one hour at 37° C. and EDTA (0.2 g/L in phosphate buffered saline) for 20 min at 37° C. Non-adherent cells are rinsed away by washing with phosphate buffered saline. Osteoclast-like cells which are resistant to the sequential treatments are present at about 95% purity and are maintained in α-MEM supplemented with fetal calf serum (10% v/v), 10 nM 1,25-(OH)2 vitamin D3, macrophage-colony-stimulating factor (5 ng/mL).
The compounds to be evaluated are prepared as a solution of the desired concentration in α-MEM. Examples of compounds that can be evaluated include nitrogen-containing bisphosphonates such as alendronate monosodium trihydrate, as well as compounds that block the effects of these inhibitors, such as isoprenoid compounds, for example, geranylgeraniol, geranylgeranyl phosphate, geranylgeranyl pyrophosphate, geranylgeranyl acetate, geranylgeranyl propionate, geranylgeranyl benzoate, geranylgeranyl lactate, geranylgeranyl succinate, and geranylgeranyl glutarate. Combinations of compounds can also be evaluated. The solutions of the compounds to be evaluated are added to the cultures for a time period of 17-24 hours. No treatment controls (controls not treated with compounds) are prepared by adding equivalent volumes of α-MEM to the control dishes.
Cells are then harvested and Iysed in a HEPES (N-(2-hydroxyethyl)piperazine-N′-(2-ethansulfonic acid) or Tris buffer containing the following: β-glycerophosphate (50 mM); Na3VO4 (1 mM); NaF (1 mM); Microcystin LR (1 μM); leupeptin (10 μg/ml); aprotinin (10 μg/ml); phenylmethyl sulfonylfluoride (1 mM). Protein concentrations are determined for each lysate and 5-20 μg are loaded into each lane of a SDS-PAGE (sodium dodecyl sulfate-polyacrylamide gel electrophoresis) gel containing Myelin Basic Protein, or another kinase substrate, which has been polymerized into the gel at a concentration between 50-400 μg/ml. Molecular weight standards are also loaded into one or more lanes of the gels. In-gel kinase assays are run according to a standard procedure based on Kameshita and Fujisawa, 1989 (Anal. Biochem. 183:139-143) and of Gotoh et al., 1990 (Eur. J. Biochem. 193: 661-669), both references being incorporated by reference herein in their entirety. The proteins are electrophoresed in the above gels. The gels are then successively soaked in 50 mM HEPES, pH 7.6; 5 mM 2-mercaptoethanol and each of the following (for each wash): (a) 20% isopropanol; (b) no additions; (c) urea (6 M); (d) Urea (3 M); (e) Urea (0.75 M); and Tween 20 (0.05% vol:vol). Kinase reactions are then run by first soaking the gels in 20 mM HEPES, pH 7.6; 20 mM MgCl2; 2 mM DTT and then in the same buffer containing 0.02 M ATP (non-radioactive) with ca. 1000 cpm/pmol ^32P-γ-ATP. […]

Regarding `CC(C)=CCC/C(C)=C/CC/C(C)=C/CC/C(C)=C/CO` [geranylgeraniol], in the experiment with osteoclast function, the “effect on bisphosphonate-induced inhibition of osteoclast function” value is reported as “block the inhibitory effect”. The “effect on activation of the 34 kDa Mst Kinase fragment by alendronate monosodium trihydrate” value in experiment [1] (FIG. 4 lane 3, 10 μM geranylgeraniol with 30 μM alendronate monosodium trihydrate) is “negates this activation”. Besides, in experiment [1], the “blocking of activation of Mst1 cleavage by alendronate monosodium trihydrate” value is “blocked”. The “effect on cleavage of Mst induced by bisphosphonates such as alendronate monosodium trihydrate” value in experiment [1] (osteoclasts, no concentration stated) is recorded as “prevent the cleavage of Mst”.
Turning to `CC(C)=CCCC(C)=CCCC(C)=CCO` [farnesol], the “blocking of activation of Mst1 cleavage by alendronate monosodium trihydrate” value in experiment [1] was “partially blocked”.
For `CC(O)(P(=O)(O)O)P(=O)(O)O` [etidronate disodium], the “activation of the 34 kDa Mst Kinase fragment” value in experiment [1] (FIG. 2, 30 μM, about 17 hours) is given as “fail to activate”; in experiment [1] (FIG. 2, 100 μM, about 17 hours), “fail to activate”.
`NCCCC(O)(P(=O)(O)O)P(=O)(O)O` [alendronate monosodium trihydrate, 4-amino-1-hydroxybutylidene-1,1-bisphosphonic acid monosodium trihydrate]: in experiment [1] (FIG. 1 lane 3, 30 μM, osteoclast-like cells, in-gel kinase assay after immunoprecipitation), the “activation of 34 kDa Mst Kinase fragment immunoprecipitated by anti-Mst and anti-Krs antibody cocktail” value is “activated”. For the same compound, the “activation of the 34 kDa Mst Kinase fragment” value in experiment [1] (FIG. 2, 30 μM, about 17 hours) is reported as “activation”; in experiment [1] (FIG. 2, 100 μM, about 17 hours), “activation”; in experiment [1] (FIG. 4 lane 2, 30 μM) it was “activation”. The “activation of Mst1 cleavage” value in experiment [1] (FIG. 5 lane 2, 30 μM, myelin basic protein as substrate) is “activation of Mst1 cleavage”.
In the case of `O=P(O)(O)C(Sc1ccc(Cl)cc1)P(=O)(O)O` [tiludronate disodium], the “activation of the 34 kDa Mst Kinase fragment” value is listed as “fail to activate” in experiment [1] (FIG. 2, 30 μM, about 17 hours) and “fail to activate” in experiment [1] (FIG. 2, 100 μM, about 17 hours).
